Counter-ions that a name gives are not always drawn.
Columns and labels:
Type in all cases: cell-based
CRAC channels = CRAC channels (Homo sapiens (Human), UniProt Q96D31); assay: In-vitro CRAC channel inhibition assay in Jurkat cells (thapsigargin-induced calcium influx)
Summary of the method: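 Jurkat cells given test compounds in Ca2+/Mg2+-free Hanks buffer for 15 min, then thapsigargin (1 μM final) for 15 min to deplete ER stores. IC50 from percent inhibition of thapsigargin-induced Ca2+ influx.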

[1] = tested on: NCI-H460 cancer cell line; assay: In-vitro cell proliferation assay in NCI-H460 cancer cell line (MTT); settings: Homo sapiens, 48 h; for IC50: read-out: NCI-H460 Cell line assay G1 50 nM
Procedure: 1C. In-Vitro Cell Proliferation Assay in NCI-H460 Cancer Cell Line (Anticancer Activity)
Growth inhibition assays were carried out using 10% FBS supplemented media. Cells were seeded at a concentration of 5000 cells/well in a 96-well plate. Test compound at a concentration range from 0.01 to 10000 nM were added after 24 h. Growth was assessed using the 3-[4,5-dimethylthiazol-2-yl]-2,5-diphenyltetrazolium bromide (MTT) dye reduction test at 0 h (prior to the addition of the test compound) and 48 h after the addition of test compound. Absorbance was read on a Fluostar Optima (BMG Labtech, Germany) at a wave length of 450 nm. Data were analysed using GraphPad Prism. IC-50 for each compound was determined based on the % inhibition due to the test compound compared to the control.
For methods of cell proliferation assay, see, for example, Mosmann. T., Journal of Immunological Methods, 65(1-2), 55-63, (1983).

IL-2 = assay: Inhibition of cytokine release in Human Whole Blood: IL-2; settings: Con A + PMA, 20 h, ELISA, read-out: IC 50 Human Whole Blood IL-2
Procedure: 2. In Vitro Inhibition of Cytokine Release in Jurkat Cells, Human Whole Blood and Peripheral Blood Mononuclear Cells (PBMC).
Inhibition of cytokine IL-2, IL-4, IL-5 and TNF α was determined as described below. • a. Inhibition of IL-2 in Jurkat cells: Cells were incubated with desired concentrations of the inhibitor for 15 min. Cytokine release was induced by the addition of Concanavalin A (25 μg/ml)+Phorbol Myristate Acetate (50 ng/ml) for IL-2 & TNFα or with Phytohemagglutinin ([…]) for IL-4 & IL-5 and incubated at 37° C. in an atmosphere containing […]. Supernatant was collected after 20 h (IL-2 & TNFα) or 48 h (IL-4 & IL-5) for estimation of cytokines by ELISA. Data were analysed using GraphPad Prism. IC50 values for each compound were determined based on the percent inhibition due to the test compound compared to the control. • b. Inhibition of cytokine release in Human Whole Blood (HWB): Freshly collected HWB was diluted with RPMI medium (1:4.5) and added to a 96-well plate. Wells were incubated with desired concentrations of the inhibitor for 15 min. Cytokine release was induced by the addition of Concanavalin A (25 μg/ml)+Phorbol Myristate Acetate (50 ng/ml) for IL-2 & TNFα or with Phytohemagglutinin (5 μg/ml) for IL-4 & IL-5 and incubated at 37° C. in an atmosphere containing […]. Supernatant was collected after 20 h (IL-2 & TNFα) or 48 h (IL-4 & IL-5) for estimation of cytokines by ELISA. Data were analysed using GraphPad Prism. IC50 values for each compound were determined based on the percent inhibition due to the test compound compared to the control. • c. Inhibition of cytokine release in PBMC: PBMC from freshly collected HWB were isolated by density gradient using Histopaque and seeded in a 96-well plate. Cells were incubated with desired concentrations of the inhibitor for 15 min. Cytokine release was induced by the addition of Concanavalin A (25 μg/ml)+Phorbol Myristate Acetate (50 ng/ml) for IL-2 & TNFα or with Phytohemagglutinin (5 μg/ml) for IL-4 & IL-5 and incubated at 37° C. in an atmosphere containing […]. Supernatant was collected after 20 h (IL-2 & TNFα) or 48 h (IL-4 & IL-5) for estimation of cytokines by ELISA. Data were analysed using GraphPad Prism. IC50 values for each compound were determined based on the percent inhibition due to the test compound compared to the control.

Sequence of CRAC channels (Q96D31 whole entry): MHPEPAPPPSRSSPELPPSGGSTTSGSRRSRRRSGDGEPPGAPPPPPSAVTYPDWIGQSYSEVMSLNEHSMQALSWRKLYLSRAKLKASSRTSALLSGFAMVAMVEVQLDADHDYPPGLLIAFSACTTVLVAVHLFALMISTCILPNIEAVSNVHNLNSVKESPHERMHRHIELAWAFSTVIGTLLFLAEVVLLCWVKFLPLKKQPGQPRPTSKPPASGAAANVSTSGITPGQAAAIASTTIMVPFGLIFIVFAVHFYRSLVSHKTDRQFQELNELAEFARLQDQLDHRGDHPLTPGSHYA

Row | Compound | inhibition at 1 µM (CRAC channels) [%] | inhibition at 10 µM [1] [%] | also measured
1 | O=C(Nc1ccc(-n2nc(C3CC3)cc2C2CC2)cc1)C1(c2ccccc2)CC1 [Example 21, N-[4-(3,5-dicyclopropyl-1H-pyrazol-1-yl)phenyl]-1-phenylcyclopropanecarboxamide] | 78.4 | 41 | 
2 | O=C(Nc1ccc(-n2nc(C(F)(F)F)cc2C2CC2)c(F)c1)c1c(Cl)cncc1Cl [Example 92, 3,5-dichloro-N-{4-[5-cyclopropyl-3-(trifluoromethyl)-1H-pyrazol-1-yl]-3-fluorophenyl}isonicotinamide] | 95.8 | 100 | 
3 | Cc1ncncc1C(=O)Nc1cc(F)c(-n2nc(C(F)(F)F)cc2C2CC2)c(F)c1 [Example 130, N-{4-[5-cyclopropyl-3-(trifluoromethyl)-1H-pyrazol-1-yl]-3,5-difluorophenyl}-4-methylpyrimidine-5-carboxamide] | 5.31 |  | 
4 | O=C(Nc1ccc(-n2nc(C(F)(F)F)cc2C2CC2)c(F)c1)C1(c2ccccc2)CCC1 [Example 131, N-{4-[5-cyclopropyl-3-(trifluoromethyl)-1H-pyrazol-1-yl]-3-fluorophenyl}-1-phenylcyclobutanecarboxamide] | 0 |  | 
5 | Cc1ncoc1C(=O)Nc1ccc(-n2nc(C(F)(F)F)cc2C2CC2)c(F)c1 [Example 132, N-{4-[5-cyclopropyl-3-(trifluoromethyl)-1H-pyrazol-1-yl]-3-fluorophenyl}-4-methyloxazole-5-carboxamide] | 85.2 |  | 
6 | N-{4-[3-cyclopropyl-5-(difluoromethyl)-1H-pyrazol-1-yl]-3-fluorophenyl}-2,6-difluorobenzamide and N-{4-[5-cyclopropyl-3-(difluoromethyl)-1H-pyrazol-1-yl]-3-fluorophenyl}-2,6-difluorobenzamide [Example 135] |  |  | % inhibition (1 uM) (CRAC channels): 100%

Further lines, with some results ahead:

Row | inhibition at 1 µM (CRAC channels) [%] | Compound | inhibition at 10 µM [1] [%] | also measured
7 | 100 | O=C(Nc1ccc(-n2nc(C(F)(F)F)cc2C2CC2)cc1)c1c(Cl)cncc1Cl [Example 49, 3,5-dichloro-N-{4-[5-cyclopropyl-3-(trifluoromethyl)-1H-pyrazol-1-yl]phenyl}isonicotinamide] |  | IC50 (IL-2): 199 nM
8 | 100 | Cc1oncc1C(=O)Nc1ccc(-n2nc(C(F)(F)F)cc2C2CC2)cc1 [Example 56, N-{4-[5-cyclopropyl-3-(trifluoromethyl)-1H-pyrazol-1-yl]phenyl}-5-methylisoxazole-4-carboxamide] |  | IC50 (IL-2): 78.4 nM
9 | 100 | O=C(Nc1ccc(-n2nc(C(F)(F)F)cc2C2CC2)c(F)c1)c1ccncc1 [Example 90, N-{4-[5-cyclopropyl-3-(trifluoromethyl)-1H-pyrazol-1-yl]-3-fluorophenyl}isonicotinamide hydrochloride] | 90.7 | IC50 [1]: 305 nM
10 | 100 | O=C(Nc1ccc(-n2nc(C(F)(F)F)cc2C2CC2)c(F)c1)c1ccncc1F [Example 91, N-{4-[5-cyclopropyl-3-(trifluoromethyl)-1H-pyrazol-1-yl]-3-fluorophenyl}-3-fluoroisonicotinamide] | 92.7 | IC50 [1]: 1360 nM
11 | 100 | O=C(Nc1ccc(-n2nc(C(F)(F)F)cc2C2CC2)nc1)c1cccnc1 [Example 111, N-{6-[5-cyclopropyl-3-(trifluoromethyl)-1H-pyrazol-1-yl]pyridin-3-yl}nicotinamide hydrochloride] |  | IC50 (IL-2): 82.8 nM
12 | 5.62 | Cc1ncncc1C(=O)Nc1cnc(-n2nc(C(F)(F)F)cc2C2CC2)nc1 [Example 133, N-{2-[5-cyclopropyl-3-(trifluoromethyl)-1H-pyrazol-1-yl]pyrimidin-5-yl}-4-methylpyrimidine-5-carboxamide] |  | 
13 | 18.6 | Cc1ncncc1NC(=O)c1ccc(-n2nc(C(F)(F)F)cc2C2CC2)c(F)c1 [Example 134, 4-[5-cyclopropyl-3-(trifluoromethyl)-1H-pyrazol-1-yl]-3-fluoro-N-(4-methylpyrimidin-5-yl)benzamide] |  | 
